From US4593104A, “2-halo-N-(azole-1-yl-methyl)-substituted acetanilides” (BASF Aktiengesellschaft, priority 1976, dated 1986)

Legend:
Gossyp. hirs. = assay: preemergence treatment in the greenhouse, % damage; assay type: in vivo, Gosspyium hirsutum
Text: (§1) The vessels employed were plastic flowerpots having a volume of 300 cm^3; the substrate was a sandy loam containing about 1.5% humus. The seeds of the test plants (see Table 1) were sown shallow, and separated according to species. In the case of Cyperus esculentus, pregerminated tubers were planted. In the preemergence treatment, the active ingredients were then immediately applied to the surface of the soil. They were suspended or emulsified in water as the vehicle, and sprayed through atomizing nozzles. After the agents had been applied, the vessels were lightly sprinkler-irrigated to set germination and growth going, and to activate the chemical agents. The vessels were then covered with transparent plastic hoods until the plants had taken root. This cover ensured uniform germination of the test plants (to the extent that this was not impaired by the chemicals), and prevented readily volatile substances from evaporating.
(§2) For postemergence treatment, the plants were first grown to a height of from 3 to 10 cm, depending on their habit, before treated. Hoods were not placed on the pots. The experiments were set up in the greenhouse, hotter areas (25° to 40° C.) being preferred for heat-loving species, and 15° to 30° C. for plants from moderate climates. The experiments were carried out for from 4 to 6 weeks. During this period the plants were tended and their reaction to the various treatments was assessed. The following tables contain the substances investigated, the application rates in kg/ha of active ingredient, and the test plant species. Assessments were made on a 0 to 100 scale, 0 denoting no damage or normal emergence, and 100 denoting no emergence or complete destruction of at least the visible plant parts.

Alopec. myosur. [1] = assay: preemergence treatment in the greenhouse, % damage; assay type: in vivo
Text: as §1, §2

Amar. retro. = assay: preemergence treatment in the greenhouse, % damage; assay type: in vivo
Text: as §1, §2

Setaria spp. [2] = assay: preemergence treatment in the greenhouse, % damage; assay type: in vivo
Text: as §1, §2

Sorgh. halep. = assay: preemergence treatment in the greenhouse, % damage; assay type: in vivo
Text: as §1, §2

Euph. gen. = assay: preemergence treatment in the greenhouse, % damage; assay type: in vivo
Text: as §1, §2

Stell. med. [3] = assay: preemergence treatment in the greenhouse, % damage; assay type: in vivo
Text: as §1, §2

Echin. c.g. = assay: preemergence treatment in the greenhouse, % damage; assay type: in vivo
Text: as §1, §2

Matric. spp. [4] = assay: preemergence treatment in the greenhouse, % damage; assay type: in vivo
Text: as §1, §2

Cyp. diff. = assay: preemergence treatment in the greenhouse, % damage; assay type: in vivo
Text: as §1, §2

Glyc. max = assay: preemergence treatment in the greenhouse, % damage; assay type: in vivo, Glycine max
Text: as §1, §2

Cyper. escul. [5] = assay: preemergence treatment in the greenhouse, % damage; assay type: in vivo, Cyperus esculentus
Text: as §1, §2

Solanum nigrum = assay: preemergence treatment in the greenhouse, % damage; assay type: in vivo
Text: as §1, §2

Cyper. escul. [6] = assay: postemergence application in the greenhouse, % damage; assay type: in vivo, Cyperus esculentus
Text: as §1, §2

Alopec. myosur. [7] = assay: as above; assay type: in vivo
Text: as §1, §2

Chrys. seget. = assay: as above; assay type: in vivo
Text: as §1, §2

Setaria spp. [8] = assay: as above; assay type: in vivo
Text: as §1, §2

Avena fat. = assay: as above; assay type: in vivo
Text: as §1, §2

Stell. med. [9] = assay: as above; assay type: in vivo
Text: as §1, §2

Matric. spp. [10] = assay: as above; assay type: in vivo
Text: as §1, §2

Sorgh. bicol. = assay: preemergence treatment in the greenhouse, % damage; assay type: in vivo, Sorghum bicolor
Text: as §1, §2

Zea mays = assay: preemergence treatment in the greenhouse, % damage; assay type: in vivo
Text: as §1, §2

Beta vulg. = assay: preemergence treatment in the greenhouse, % damage; assay type: in vivo, Beta vulgaris
Text: as §1, §2

## Cc1ccc(C)c(N(Cn2cccn2)C(=O)CCl)c1C [Compound 14]
Gossyp. hirs.; 0.25 kg/ha
  % damage: 0%
Gossyp. hirs.; 0.5 kg/ha
  % damage: 0%
Gossyp. hirs.; 1.0 kg/ha
  % damage: 15%
Alopec. myosur. [1]; 0.25 kg/ha
  % damage: 95%
Alopec. myosur. [1]; 0.5 kg/ha
  % damage: 100%
Alopec. myosur. [1]; 1.0 kg/ha
  % damage: 100%
Amar. retro.; 0.25 kg/ha
  % damage: 100%
Amar. retro.; 0.5 kg/ha
  % damage: 100%
Amar. retro.; 1.0 kg/ha
  % damage: 100%
Setaria spp. [2]; 0.25 kg/ha
  % damage: 100%
Setaria spp. [2]; 0.5 kg/ha
  % damage: 100%
Setaria spp. [2]; 1.0 kg/ha
  % damage: 100%
Sorgh. halep.; 0.25 kg/ha
  % damage: 95%
Sorgh. halep.; 0.5 kg/ha
  % damage: 95%
Sorgh. halep.; 1.0 kg/ha
  % damage: 100%
Euph. gen.; 0.25 kg/ha
  % damage: 80%
Euph. gen.; 0.5 kg/ha
  % damage: 95%
Euph. gen.; 1.0 kg/ha
  % damage: 95%
Stell. med. [3]; 0.25 kg/ha
  % damage: 90%
Stell. med. [3]; 0.5 kg/ha
  % damage: 100%
Stell. med. [3]; 1.0 kg/ha
  % damage: 100%
Echin. c.g.; 0.25 kg/ha
  % damage: 100%
Echin. c.g.; 0.5 kg/ha
  % damage: 100%
Echin. c.g.; 1.0 kg/ha
  % damage: 100%
Matric. spp. [4]; 0.25 kg/ha
  % damage: 80%
Matric. spp. [4]; 0.5 kg/ha
  % damage: 100%
Matric. spp. [4]; 1.0 kg/ha
  % damage: 100%
Cyp. diff.; 0.25 kg/ha
  % damage: 100%
Cyp. diff.; 0.5 kg/ha
  % damage: 100%
Cyp. diff.; 1.0 kg/ha
  % damage: 100%
Glyc. max; 0.25 kg/ha
  % damage: 10%
Glyc. max; 0.5 kg/ha
  % damage: 10%
Glyc. max; 1.0 kg/ha
  % damage: 20%

## Cc1cc(C)n(CN(C(=O)CCl)c2c(C)ccc(C)c2C)n1 [Compound 47]
Gossyp. hirs.; 0.25 kg/ha
  % damage: 0%
Gossyp. hirs.; 0.5 kg/ha
  % damage: 0%
Gossyp. hirs.; 1.0 kg/ha
  % damage: 0%
Alopec. myosur. [1]; 0.25 kg/ha
  % damage: 95%
Alopec. myosur. [1]; 0.5 kg/ha
  % damage: 100%
Alopec. myosur. [1]; 1.0 kg/ha
  % damage: 100%
Amar. retro.; 0.25 kg/ha
  % damage: 100%
Amar. retro.; 0.5 kg/ha
  % damage: 100%
Amar. retro.; 1.0 kg/ha
  % damage: 100%
Setaria spp. [2]; 0.25 kg/ha
  % damage: 100%
Setaria spp. [2]; 0.5 kg/ha
  % damage: 100%
Setaria spp. [2]; 1.0 kg/ha
  % damage: 100%
Sorgh. halep.; 0.25 kg/ha
  % damage: 85%
Sorgh. halep.; 0.5 kg/ha
  % damage: 90%
Sorgh. halep.; 1.0 kg/ha
  % damage: 95%
Euph. gen.; 0.25 kg/ha
  % damage: 10%
Euph. gen.; 0.5 kg/ha
  % damage: 10%
Euph. gen.; 1.0 kg/ha
  % damage: 20%
Stell. med. [3]; 0.25 kg/ha
  % damage: 30%
Stell. med. [3]; 0.5 kg/ha
  % damage: 80%
Stell. med. [3]; 1.0 kg/ha
  % damage: 100%
Echin. c.g.; 0.25 kg/ha
  % damage: 95%
Echin. c.g.; 0.5 kg/ha
  % damage: 95%
Echin. c.g.; 1.0 kg/ha
  % damage: 100%
Matric. spp. [4]; 0.25 kg/ha
  % damage: 80%
Matric. spp. [4]; 0.5 kg/ha
  % damage: 90%
Matric. spp. [4]; 1.0 kg/ha
  % damage: 100%
Cyp. diff.; 0.25 kg/ha
  % damage: 100%
Cyp. diff.; 0.5 kg/ha
  % damage: 100%
Cyp. diff.; 1.0 kg/ha
  % damage: 100%
Glyc. max; 0.25 kg/ha
  % damage: 20%
Glyc. max; 0.5 kg/ha
  % damage: 20%
Glyc. max; 1.0 kg/ha
  % damage: 30%

## CCc1cccc(C)c1N(Cn1ccc(C)n1)C(=O)CCl [Compound 68]
Cyper. escul. [5]; 0.25 kg/ha
  % damage: 65%
Cyper. escul. [5]; 1.0 kg/ha
  % damage: 80%
Cyper. escul. [5]; 2.0 kg/ha
  % damage: 80%
Gossyp. hirs.; 0.25 kg/ha
  % damage: 0%
Gossyp. hirs.; 1.0 kg/ha
  % damage: 5%
Gossyp. hirs.; 2.0 kg/ha
  % damage: 5%
Amar. retro.; 0.25 kg/ha
  % damage: 95%
Amar. retro.; 1.0 kg/ha
  % damage: 100%
Amar. retro.; 2.0 kg/ha
  % damage: 100%
Setaria spp. [2]; 0.25 kg/ha
  % damage: 95%
Setaria spp. [2]; 1.0 kg/ha
  % damage: 100%
Setaria spp. [2]; 2.0 kg/ha
  % damage: 100%
Solanum nigrum; 0.25 kg/ha
  % damage: 95%
Solanum nigrum; 1.0 kg/ha
  % damage: 100%
Solanum nigrum; 2.0 kg/ha
  % damage: 100%
Euph. gen.; 0.25 kg/ha
  % damage: 10%
Euph. gen.; 1.0 kg/ha
  % damage: 60%
Euph. gen.; 2.0 kg/ha
  % damage: 75%
Echin. c.g.; 0.25 kg/ha
  % damage: 95%
Echin. c.g.; 1.0 kg/ha
  % damage: 95%
Echin. c.g.; 2.0 kg/ha
  % damage: 95%
Cyper. escul. [6]; 1.0 kg/ha
  % damage: 85%
Cyper. escul. [6]; 2.0 kg/ha
  % damage: 85%
Glyc. max; 0.25 kg/ha
  % damage: 0%
Glyc. max; 1.0 kg/ha
  % damage: 0%
Glyc. max; 2.0 kg/ha
  % damage: 10%
Alopec. myosur. [7]; 1.0 kg/ha
  % damage: 90%
Alopec. myosur. [7]; 2.0 kg/ha
  % damage: 90%
Chrys. seget.; 1.0 kg/ha
  % damage: 40%
Chrys. seget.; 2.0 kg/ha
  % damage: 50%
Setaria spp. [8]; 1.0 kg/ha
  % damage: 90%
Setaria spp. [8]; 2.0 kg/ha
  % damage: 95%
Avena fat.; 1.0 kg/ha
  % damage: 90%
Avena fat.; 2.0 kg/ha
  % damage: 90%
Stell. med. [9]; 1.0 kg/ha
  % damage: 60%
Stell. med. [9]; 2.0 kg/ha
  % damage: 60%
Matric. spp. [10]; 1.0 kg/ha
  % damage: 80%
Matric. spp. [10]; 2.0 kg/ha
  % damage: 80%

## Cc1cccc(C)c1N(Cn1nc(C)c(Cl)c1C)C(=O)CCl [Compound 106]
Sorgh. bicol.; 1.0 kg/ha
  % damage: 70%
Sorgh. bicol.; 2.0 kg/ha
  % damage: 70%
Alopec. myosur. [1]; 1.0 kg/ha
  % damage: 100%
Alopec. myosur. [1]; 2.0 kg/ha
  % damage: 100%
Zea mays; 1.0 kg/ha
  % damage: 15%
Zea mays; 2.0 kg/ha
  % damage: 50%
Amar. retro.; 1.0 kg/ha
  % damage: 95%
Amar. retro.; 2.0 kg/ha
  % damage: 95%
Setaria spp. [2]; 1.0 kg/ha
  % damage: 90%
Setaria spp. [2]; 2.0 kg/ha
  % damage: 95%
Beta vulg.; 1.0 kg/ha
  % damage: 10%
Beta vulg.; 2.0 kg/ha
  % damage: 10%
Glyc. max; 1.0 kg/ha
  % damage: 10%
Glyc. max; 2.0 kg/ha
  % damage: 10%
